biological target: T1, catalytic domain of human Bub1 (amino acids 704-1085) (Homo sapiens, UniProt O43683); test: Bub1 kinase assay (TR-FRET); type: biochemical; settings: TR-FRET; ATP 10 μM, peptide substrate 1 μM; 60 min at 22° C.; average or median if tested more than once; read-out: Inhibition of Bub1 kinase IC50
T1 construct: catalytic domain of human Bub1 (amino acids 704-1085); His6 (N); made in house; host or cells: Hi5 insect cells
In short: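 Human Bub1 catalytic domain (704-1085, His6-tagged, Hi5-expressed, ~200 ng/mL) preincubated with compound 15 min at 22 °C, then reacted 60 min at 22 °C with 10 μM ATP and 1 μM biotinylated peptide substrate, pH 7.5. EDTA stop; TR-FRET 665/620 ratio; IC50 from 4-parameter fit, 11 concentrations in duplicate.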

T1 sequence (O43683 704-1085): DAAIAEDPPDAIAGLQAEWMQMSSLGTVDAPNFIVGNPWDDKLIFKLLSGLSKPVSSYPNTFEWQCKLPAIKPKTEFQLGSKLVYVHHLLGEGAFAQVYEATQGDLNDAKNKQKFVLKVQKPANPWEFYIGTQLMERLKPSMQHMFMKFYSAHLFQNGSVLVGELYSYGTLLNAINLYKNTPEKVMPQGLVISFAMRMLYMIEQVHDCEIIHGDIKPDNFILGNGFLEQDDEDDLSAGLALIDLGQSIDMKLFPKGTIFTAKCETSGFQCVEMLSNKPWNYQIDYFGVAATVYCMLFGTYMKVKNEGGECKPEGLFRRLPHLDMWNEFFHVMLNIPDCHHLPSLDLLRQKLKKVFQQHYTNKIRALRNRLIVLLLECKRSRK

Row | Compound | IC50 [nM]
1 | CC(=O)Nc1cc(-c2[nH]c3c(c2Nc2ccccc2)C(=O)CN(C(=O)CCS(C)(=O)=O)C3)ccn1 [Example 210, N-(4-6-[3-(Methylsulfonyl)propanoyl]-4-oxo-3-(phenylamino)-4,5,6,7-tetrahydro-1H-pyrrolo[2,3-c]pyridin-2-ylpyridin-2-yl)acetamide] | 3
2 | CC(C)(F)C(=O)Nc1cc(-c2[nH]c3c(c2Nc2ccccc2)C(=O)CN(S(=O)(=O)c2cnc[nH]2)C3)ccn1 [Example 162, N-{4-[3-Anilino-6(1H-imidazol-5-ylsulfonyl)-4-oxo-4,5,6,7-tetrahydro-1H-pyrrolo[2,3-c]pyridin-2-yl]pyridin-2-yl}-2-fluoro-2-methylpropanamide] | 38
3 | COc1cc(C(=O)Nc2cc(-c3[nH]c4c(c3Nc3ccccc3)C(=O)CN(C(=O)N3CCCC3)C4)ccn2)ccc1F [Example 262, 4-Fluoro-3-methoxy-N-4-[4-oxo-3-(phenylamino)-6-(pyrrolidin-1-ylcarbonyl)-4,5,6,7-tetrahydro-1H-pyrrolo[2,3-c]pyridin-2-yl]pyridin-2-ylbenzamide] | 8
4 | CNC(=O)N1CC(=O)c2c([nH]c(-c3ccnc(NC(=O)[C@@H]4C[C@@H]4F)c3)c2Nc2ccccc2)C1 [Example 206, 2-[2-([(1S,2S)-2-Fluorocyclopropyl]carbonylamino)pyridin-4-yl]-N-methyl-4-oxo-3-(phenylamino)-1,4,5,7-tetrahydro-6H-pyrrolo[2,3-c]pyridine-6-carboxamide] | 4
5 | CC(=O)Nc1cc(-c2[nH]c3c(c2Nc2ccccc2)C(=O)CN(C(=O)C(C)(C)C)C3)ccn1 [Example 181, N-{4-[3-Anilino-6-(2,2-dimethylpropanoyl)-4-oxo-4,5,6,7-tetrahydro-1H-pyrrolo[2,3-c]pyridin-2-yl]pyridin-2-yl}acetamide] | 5
6 | CC(C)(C)OC(=O)N1CC(=O)c2c([nH]c(-c3ccncc3OCC(F)(F)F)c2Nc2ccccc2)C1 [Example 221, tert-Butyl 3-anilino-4-oxo-2-[3-(2,2,2-trifluoroethoxy)pyridin-4-yl]-1,4,5,7-tetrahydro-6H-pyrrolo[2,3-c]pyridine-6-carboxylate] | 104
7 | CC(C)(C)OC(=O)N1CC(=O)c2c([nH]c(-c3ccnc(N)c3)c2Nc2ccccc2)C1 [Example 13, tert-Butyl 2-(2-aminopyridin-4-yl)-4-oxo-3-(phenylamino)-1,4,5,7-tetrahydro-6H-pyrrolo[2,3-c]pyridine-6-carboxylate] | 40
8 | O=C1COCc2[nH]c(-c3ccncc3Br)c(Nc3ccccc3)c21 [Example 41, 2-(3-Bromopyridin-4-yl)-3-(phenylamino)-1,7-dihydropyrano[3,4-b]pyrrol-4(5H)-one] | 233
9 | CC(=O)Nc1cc(-c2[nH]c3c(c2Nc2ccccc2)C(=O)CN(C(=O)SC(C)(C)C)C3)ccn1 [Example 301, S-tert-butyl 2-(2-acetamidopyridin-4-yl)-3-anilino-4-oxo-1,4,5,7-tetrahydro-6H-pyrrolo[2,3-c]pyridine-6-carbothioate] | 33
10 | CC(C)(C)OC(=O)N1CC(=O)c2c([nH]c(-c3ccncc3OCC3CC3)c2Nc2ccccc2)C1 [Example 223, tert-Butyl 3-anilino-2-[3-(cyclopropylmethoxy)pyridin-4-yl]-4-oxo-1,4,5,7-tetrahydro-6H-pyrrolo[2,3-c]pyridine-6-carboxylate] | 14
11 | CC(C)(O)C(=O)Nc1cc(-c2[nH]c3c(c2Nc2ccccc2)C(=O)COC3)ccn1 [Example 152, N-[4-(3-Anilino-4-oxo-1,4,5,7-tetrahydropyrano[3,4-b]pyrrol-2-yl)pyridin-2-yl]-2-hydroxy-2-methylpropanamide] | 437
12 | O=C1CN(S(=O)(=O)c2cnc[nH]2)Cc2[nH]c(-c3ccncc3)c(Nc3ccccc3)c21 [Example 72, 6-(1H-Imidazol-5-ylsulfonyl)-3-(phenylamino)-2-(pyridin-4-yl)-1,5,6,7-tetrahydro-4H-pyrrolo[2,3-c]pyridin-4-one] | 7
13 | CSCCNC(=O)N1CC(=O)c2c([nH]c(-c3ccncc3)c2Nc2ccccc2)C1 [Example 87, N-[2-(Methylsulfanyl)ethyl]4-oxo-3-(phenylamino)-2-(pyridin-4-yl)-1,4,5,7-tetrahydro-6H-pyrrolo[2,3-c]pyridine-6-carboxamide] | 11
14 | CC(=O)Nc1cc(-c2[nH]c3c(c2Nc2ccccc2)C(=O)CN(C(=O)c2cccnc2)C3)ccn1 [Example 115, N-{4-[4-Oxo-3-(phenylamino)-6-(pyridin-3-ylcarbonyl)-4,5,6,7-tetrahydro-1H-pyrrolo[2,3-c]pyridin-2-yl]pyridin-2-yl}acetamide] | 45
15 | O=C1CN(C(=O)NCC(F)F)Cc2[nH]c(-c3ccncc3)c(Nc3ccccc3)c21 [Example 83, N-(2,2-Difluoroethyl)-4-oxo-3-(phenylamino)-2-(pyridin-4-yl)-1,4,5,7-tetrahydro-6H-pyrrolo[2,3-c]pyridine-6-carboxamide] | 12
16 | CC(C)OC(=O)N1CC(=O)c2c([nH]c(-c3ccncc3)c2Nc2ccccc2)C1 [Example 77, Propan-2-yl 4-oxo-3-(phenylamino)-2-(pyridin-4-yl)-1,4,5,7-tetrahydro-6H-pyrrolo[2,3-c]pyridine-6-carboxylate] | 11
17 | COC(=O)N1CC(=O)c2c([nH]c(-c3ccnc(NC(=O)C(C)(C)F)c3)c2Nc2ccccc2)C1 [Example 144, Methyl 3-anilino-2-{2-[(2-fluoro-2-methylpropanoyl)amino]pyridin-4-yl}-4-oxo-1,4,5,7-tetrahydro-6H-pyrrolo[2,3-c]pyridine-6-carboxylate] | 20
18 | CN(C)C(=O)N1CC(=O)c2c([nH]c(-c3ccnc(NC(=O)[C@@H]4C[C@@H]4F)c3)c2Nc2ccccc2)C1 [Example 207, 2-[2-([(1S,2S)-2-Fluorocyclopropyl]carbonylamino)pyridin-4-yl]-N,N-dimethyl-4-oxo-3-(phenylamino)-1,4,5,7-tetrahydro-6H-pyrrolo[2,3-c]pyridine-6-carboxamide] | 3
19 | CC(=O)Nc1cc(-c2[nH]c3c(c2Nc2ccc(C)cc2)C(=O)CN(C(=O)OC(C)C)C3)ccn1 [Example 323, Propan-2-yl 2-[2-(acetylamino)pyridin-4-yl]-3-[(4-methylphenyl)amino]-4-oxo-1,4,5,7-tetrahydro-6H-pyrrolo[2,3-c]pyridine-6-carboxylate] | 229
20 | CN(C)CCOc1cnccc1-c1[nH]c2c(c1Nc1ccccc1)C(=O)CN(C(=O)OC(C)(C)C)C2 [Example 276, tert-Butyl 2-3-[2-(dimethylamino)ethoxy]pyridin-4-yl-4-oxo-3-(phenylamino)-1,4,5,7-tetrahydro-6H-pyrrolo[2,3-c]pyridine-6-carboxylate] | 7
21 | COc1cnccc1-c1[nH]c2c(c1Nc1ccccc1)C(=O)CN(C(=O)C1CC1)C2 [Example 108, 6-(Cyclopropylcarbonyl)-2-(3-methoxypyridin-4-yl)-3-(phenylamino)-1,5,6,7-tetrahydro-4H-pyrrolo[2,3-c]pyridin-4-one] | 8
22 | O=C1CNCc2[nH]c(-c3ccnc(NC(=O)C4(F)CC4)c3)c(Nc3ccccc3)c21 [Example 132, N-[4-(3-anilino-4-oxo-4,5,6,7-tetrahydro-1H-pyrrolo[2,3-c]pyridin-2-yl)pyridin-2-yl]-1-fluorocyclopropanecarboxamide] | 299
23 | CC(=O)Nc1cc(-c2[nH]c3c(c2Nc2ccccc2)C(=O)CN(C(=O)CC(C)(C)O)C3)ccn1 [Example 177, N-{4-[3-Anilino-6-(3-hydroxy-3-methylbutanoyl)-4-oxo-4,5,6,7-tetrahydro-1H-pyrrolo[2,3-c]pyridin-2-yl]pyridin-2-yl}acetamide] | 23
24 | CC(=O)Nc1cc(-c2[nH]c3c(c2Nc2ccccc2)C(=O)CN(C(=O)C(C)C(F)(F)F)C3)ccn1 (racemic) [Example 178, N-(4-{3-Anilino-4-oxo-6-[(2RS)-3,3,3-trifluoro-2-methylpropanoyl]-4,5,6,7-tetrahydro-1H-pyrrolo[2,3-c]pyridin-2-yl}pyridin-2-yl)acetamide] | 5
25 | O=C1CN(C(=O)c2cccnc2)Cc2[nH]c(-c3ccncc3)c(Nc3ccccc3)c21 [Example 62, 3-(phenylamino)-2-(pyridin-4-yl)-6-(pyridin-3-ylcarbonyl)-1,5,6,7-tetrahydro-4H-pyrrolo[2,3-c]pyridin-4-one] | 15
26 | CC(C)OC(=O)N1CC(=O)c2c([nH]c(-c3ccnc(NC(=O)C(C)(C)F)c3)c2Nc2ccccc2)C1 [Example 155, Isopropyl 3-anilino-2-{2-[(2-fluoro-2-methylpropanoyl)amino]pyridin-4-yl}-4-oxo-1,4,5,7-tetrahydro-6H-pyrrolo[2,3-c]pyridine-6-carboxylate] | 60
27 | Cc1cc(F)ccc1C(=O)Nc1cc(-c2[nH]c3c(c2Nc2ccccc2)C(=O)CN(C(=O)OC(C)(C)C)C3)ccn1 [Example 263, tert-Butyl 2-2-[(4-fluoro-2-methylbenzoyl)amino]pyridin-4-yl-4-oxo-3-(phenylamino)-1,4,5,7-tetrahydro-6H-pyrrolo[2,3-c]pyridine-6-carboxylate] | 38
28 | O=C1CN(C(=O)CCO)Cc2[nH]c(-c3ccnc(NC(=O)[C@@H]4C[C@@H]4F)c3)c(Nc3ccccc3)c21 [Example 202, (1S,2S)-2-Fluoro-N-4-[6-(3-hydroxypropanoyl)-4-oxo-3-(phenylamino)-4,5,6,7-tetrahydro-1H-pyrrolo[2,3-c]pyridin-2-yl]pyridin-2-ylcyclopropanecarboxamide] | 8
29 | CCNC(=O)Nc1cc(-c2[nH]c3c(c2Nc2ccccc2)C(=O)COC3)ccn1 [Example 54, 1-Ethyl-3-{4-[4-oxo-3-(phenylamino)-1,4,5,7-tetrahydropyrano[3,4-b]pyrrol-2-yl]pyridin-2-yl}urea] | 77

Source: patent publication US20200216439A1, “HETERO-1,5,6,7-TETRAHYDRO-4H-INDOL-4-ONES” (BAYER PHARMA AKTIENGESELLSCHAFT, priority 2015, published 2020)
